Test systems include PC-3; MDA-MB-435; DMS-114; LXFL 529; DMS-273; ACHN; HOP-18; RXF 631; 786-0.
Holding throughout (experiment): inhibition of tumour cell growth, NCI panel, 48 h

Molecules are shown by their SMILES.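 Following 48 hours of exposure in 96-well plates, responses at five concentrations were used to interpolate endpoints linearly. Abbreviation: GI50, concentration required for 50% inhibition of growth.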 Calls of active or inactive are those of the source. Rule as the data show it: active = GI50 up to about 1.1 µM and inactive = higher.

`COc1ccc2c(c1)C(=O)/C(=C/c1ccccc1)C2`: the GI50 in the assay on PC-3 was 68.9 µM (inactive); with MDA-MB-435 it was 63.2 µM (inactive).

Consider `C/C(=N/NC(N)=S)c1ccc2ccccc2c1`, for which the GI50 was 17.9 µM (inactive) with DMS-114, 22.3 µM (inactive) in the assay on LXFL 529, 24.9 µM (inactive) with DMS-273 and 55.6 µM (inactive) in the assay on ACHN.

As for `O=C1C=C(C2OC(CO)C(O)C2O)C(=O)N1` (centres undefined), the GI50 with DMS-114 was 54.8 µM (inactive); in the assay with DMS-273 it was > 100 µM (inactive); in the assay with HOP-18, > 100 µM (inactive).

As to `CN(Cc1cnc2nc(N)nc(N)c2n1)c1ccc(C(=O)NC(CCC(=O)O)C(=O)O)cc1C(F)(F)F` (centres undefined), the GI50 in the assay on PC-3, in the assay with MDA-MB-435 and in the assay with ACHN was < 0.01 µM (active) in each case.

Consider `CCOc1ccc(NC(=O)C(=O)CC(=O)c2sc(NNC(C)=O)nc2C)cc1`, for which the GI50 in the assay on LXFL 529, with DMS-273, in the assay on ACHN and with RXF 631 was > 100 µM (inactive) throughout.

`CCCCCCCSCC(O)COC(c1ccccc1)(c1ccccc1)c1ccccc1` (centres undefined): the GI50 in the assay with PC-3 is 29.3 µM (inactive); with 786-0 it was 48.8 µM (inactive); in the assay on MDA-MB-435, 56.4 µM (inactive); in the assay on ACHN, 25.5 µM (inactive).

`C/C(=N\Oc1cc(Cl)ncn1)c1ccccn1`: the GI50 with PC-3 was 45.3 µM (inactive); in the assay on MDA-MB-435 it was 47.4 µM (inactive); in the assay with ACHN, 90.6 µM (inactive).

On to `COc1ccc(CN2C(=O)C(=O)N(C)C2=O)c2ccccc12`, for which the GI50 in the assay on PC-3, with MDA-MB-435 and in the assay on ACHN was > 10 µM (inactive) throughout.

Take `C=CCCCCCCCCC(=O)O` [UNDECYLENIC ACID]: the GI50 was 135 µM (inactive) in the assay on DMS-114, 127 µM (inactive) with DMS-273 and 125 µM (inactive) with HOP-18.

`CN(C(=O)C1(C(=O)C=[N+]=[N-])CC1)c1ccccc1`: the GI50 with PC-3, in the assay with 786-0, in the assay with MDA-MB-435 and in the assay on ACHN was > 100 µM (inactive) in each case.

In the case of `CCOC(=O)c1csc(NC(=O)CCN2CCCC2)n1`, the GI50 in the assay with PC-3, in the assay on MDA-MB-435 and in the assay with ACHN was > 100 µM (inactive) throughout.

For the molecule `C=C(C)C(=O)OC1CCC2(C)C(CCC3C2CCC2(C)C(c4ccc(=O)oc4)CC4OC432)C1` (centres undefined), the GI50 with DMS-114 was 2.43 µM (inactive); in the assay with DMS-273, 3.31 µM (inactive); in the assay on HOP-18 it was 13.3 µM (inactive).

As to `CC(=O)OCc1nnn2c1CCC2`, the GI50 in the assay on LXFL 529, in the assay on ACHN and with HOP-18 was > 100 µM (inactive) in each case.

As for `O=C1CC2(CCC(O)(c3cccs3)C(C(=O)c3cccs3)C2)C(=O)c2ccccc2N1` (centres undefined), the GI50 in the assay with PC-3 was 51.8 µM (inactive); in the assay with MDA-MB-435, > 100 µM (inactive).

Turning to `O=C(C[C@H](NC(=O)OCc1ccccc1)C(=O)NC1Cc2ccccc2OC1=O)OCc1ccccc1` (some centres undefined), the figures for the GI50 with PC-3 and with MDA-MB-435 were 21.8 µM (inactive) and > 100 µM (inactive), respectively.

As for `CCOC(=O)NC(C(F)(F)F)(C(F)(F)F)P(=O)(OCC(C)C)OCC(C)C`, the GI50 was 6.37 µM (inactive) with PC-3, 15.5 µM (inactive) in the assay on MDA-MB-435 and 8.34 µM (inactive) in the assay with ACHN.

The values are drawn from ChEMBL document CHEMBL1201862, “PubChem BioAssay data set” (2004).
